Measured values: patent publication US6689803B2, “Compositions and methods for treating surgical adhesions” (Angiotech Pharmaceuticals, Inc., priority 1996, dated 2004)
Like-named read-outs stand apart in the source and are kept apart here.

How the values were obtained:
[1] = tested on: chick chorioallantoic membrane (CAM) vasculature; conditions: PCL paste (3 mg)
[2] = tested on: restenosis / intimal hyperplasia; test: Rat carotid artery balloon injury model of restenosis, perivascular treatment; format: in vivo; conditions: 10% camptothecin-loaded EVA film, 14 days, two animals
Protocol: WISTAR rats weighing 250 to 300 g were anesthetized by the intramuscular injection of Innovar (0.33 ml/kg). Once sedated they were then placed under Halothane anesthesia After general anesthesia was established, fur over the neck region was shaved, the skin clamped and swabbed with betadine. A vertical incision was made over the left carotid artery and the external carotid artery exposed. Two ligatures were placed around the external carotid artery and a transverse arteriotomy was made. […] The endothelium was denuded by passing the inflated balloon up and down the carotid artery three times. The catheter was then removed and the ligature tied off on the left external carotid artery. […] The wound was then closed.

[3] = tested on: LNCaP cells; test: LNCaP cell growth (crystal violet); format: cell-based, human; conditions: inferred from toxicity at 0.001 nM
Protocol: LNCaP cells were seeded at concentrations of 2×10^3 and 1×10^3 cells/well respectively in 96 well plates. […] After incubation, the cells were fixed with 1% glutaraldehyde solution, and stained for 5 minutes with 0.5% crystal violet. The dye was successively eluted with 100 μl of buffer solution and the absorbance was read on a Titertek Multiskan microplate reader using a wavelength of 492 nm Absorbance. Cell growth was expressed as a percentage relative to control wells in the absence of the compound (set at 100%).

[4] = tested on: aggrecan mRNA; test: Expression of proteoglycan (aggrecan) in chondrocytes; format: cell-based, calf; conditions: all concentrations evaluated (10^−7 M to 10^−4 M)
Protocol: Primary chondrocyte cultures were freshly isolated from calf cartilage. The cells were plated at 2.5×10^6 per ml in 100×20 mm culture dishes and incubated in Ham's F12 medium containing 5% FBS overnight at 37° C. The cells were starved in serum-free medium overnight and then treated with anti-microtubule agents at various concentrations (10^−7 M, 10^−6 M, 10^−5 M and 10^−4 M) for 6 hours. […] Total RNA was isolated by the acidified guanidine isothiocyanate method and subjected to electrophoresis on a denatured gel. […] The exposed films were scanned and quantitatively analyzed with ImageQuant.

[5] = tested on: collagenase (MMP-1) mRNA; test: IL-1 induced collagenase mRNA expression in chondrocytes (Northern blot); format: cell-based, calf; conditions: pre-incubation 6 hours, IL-1 20 ng/ml 18 hours
Protocol: Total RNA was isolated, and the MMP-1 mRNA levels were determined by Northern blot analysis. The blots were subsequently stripped and reprobed with ^32P-radiolabeled rat GAPDH cDNA, which was used as a housekeeping gene. The results shown are representative of four independent experiments. Quantitation of collagenase-1 and stromelysin-expression mRNA levels. The MMP-1 and MMP-3 expression levels were normalized with GAPDH.
Primary chondrocyte cultures were freshly isolated from calf cartilage. The cells were plated at 2.5×10^6 per ml in 100×20 mm culture dishes and incubated in Ham's F12 medium containing 5% FBS overnight at 37° C. […] IL-1 (20 ng/ml) was then added to each plate and the plates incubated for an additional 18 hours. Total RNA was isolated by the acidified guanidine isothiocyanate method and subjected to electrophoresis on a denatured gel. Denatured RNA samples (15 μg) were analyzed by gel electrophoresis in a 1% denatured gel, transferred to a nylon membrane and hydridized with the ^32P-labeled collagenase cDNA probe. ^32P-labeled glyceraldehyde phosphate […] (GAPDH) cDNA as an internal standard to ensure roughly equal loading. The exposed films were scanned and quantitatively analyzed with ImageQuant.

[6] = tested on: NF-κB; test: NF-κB activity (cell-based) reporter assay in NIH-3T3; design: species or system murine; conditions: 6-hour and 24-hour treatments
Protocol: IL-1 and TNF were both identified as being proinflammatory cytokines that activate the transcription of genes driven by a transcription factor named NF-κB also involved in inflammatory processes. The inflammatory effect of IL-1 and TNF can therefore be indirectly assessed by means of a reporter gene assay (NF-κB) responding to IL-1 and TNF stimulation.
On day one, 5×10^4 NIH-3T3 (murine fibroblast), stably transfected with a NF-κB reporter construct (Luciferase, Promega Corp.), were plated per well (24-well plate). Once confluent (on day 3-4), cells were starved by replacing the complete medium with 1 ml of serum-free medium. Following a 24-hour starvation, cells were treated with various concentrations of anti-microtubule agents 6 hours prior to the addition of IL-1 (20 ng/ml) and TNF (20 ng/ml). Cells were exposed to IL-1 and TNF for 1 hour and 16 hours and NF-κB activity measured 24 hours later. On day five, the medium was discarded and the cells were rinsed once with PBS. Cells were then extracted for 15 minutes with 250 μl of lysis buffer (Promega Corp., Wisconsin). NF-κB transcriptional activity was assessed by adding 25 μl of luciferase substrate to a tube containing 2.5 μl of cell extract. The tube was immediately inserted in a luminometer (Turner Designs) and light emission measured for 10 seconds. The luciferase data were then normalized for protein concentration.

[7] = tested on: synoviocytes; test: Proliferation assay (MTT); format: cell-based; conditions: 24-hour exposure
Protocol: On day one, 5-10×10^4 synoviocytes were plated per well (96-well plate). Column #1 was kept free of cells (blank). On day 2, the plate was flicked to discard the medium and 200 μl of medium containing various concentrations of drug was added. […] There was no drug added to columns #1 and #2 (blank and untreated control, respectively). The medium containing the drug was discarded and 200 μl of fresh complete medium was added. The cells were then left to grow for an additional 3 to 4 days. On day five, 20 μl of dimethylthiazol diphenyltetrazolium bromide salt (MTT) (5 mg/ml PBS) was added and allowed to incubate for 4 hours at 37° C. The medium was decanted and 200 μl of DMSO was added.
The data were expressed as the % of survival which was obtained by dividing the number of cells remaining after treatment by the number of cells in the untreated control column #2 (the number of cells was obtained from a standard done prior to the assay).

CC[C@@]1(O)C(=O)OCc2c1cc1n(c2=O)Cc2cc3ccccc3nc2-1 [camptothecin]
Inhibition/n ([1]; 0.25%): ¾ | Inhibition/n ([1]; 1%): ⅔ | Inhibition/n ([1]; 5%): ⅘ | intimal hyperplasia [2]: completely inhibited intimal hyperplasia | EC50 [3]: femtomolar concentration range

Nc1ncnc2c1ccn2[C@@H]1O[C@H](CO)[C@@H](O)[C@H]1O [tubercidin, 7-deazaadenosine]
expression of aggrecan [4]: did not affect the expression of aggrecan | prevented IL-1-induced collagenase expression at concentrations as low as [5]: 100 nM | Inhibition/n ([1]; 1%): ⅓ | Inhibition/n ([1]; 5%): ⅔ | inhibitory effect on IL-1- and TNF-induced NF-κB activity [6]: around 10 μM | IC50 [7]: ~45 nM
